In patent publication US8148392B2, “2-indolyl imidazo [4,5-d] phenanthroline derivatives and their use in the treatment of cancer” (Lorus Therapeutics Inc., priority 2005, dated 2012):
Entries after “also recorded” stand apart in the source; their conditions may differ. Read-outs that look alike come from different tables or passages of the source. One block for each compound: values may come before it.

Tests used:
[1] = system: human lung NCI-H460 cells; test: Large-cell lung carcinoma NCI-H460 xenograft model, tumour growth; format: in vivo, CD-1 female nude mice; settings: Lutrol (i.p.), lipid-based (i.v.) or water-based (i.p.) formulations
Protocol: The ability of compounds of Formula I to inhibit large-cell lung tumour growth in vivo was tested by determining the efficacy of compound 3 in a xenograft model as described below. Compound 3 was tested as a lipid-based formulation having the following composition: distearoylphosphatidylethanolamine-polyethylene glycol 2000 (DSPE-PEG/5% mole) and egg phosphatidylcoline (ePC/95% mole). The formulation was prepared as follows: Stock solutions of compound 3 and lipid (ePC and DSPE-PEG) were prepared in DMF. Specific volumes of the stock solutions of compound 3 and lipid were then mixed in order to achieve a final lipid concentration of 25 mg/mL (ePC:DSPE-PEG=95:5 (mol %) and a compound 3 to total lipid ratio of 1:10 (w/w). The mixture was stirred for four hours, thoroughly dried under nitrogen and left overnight under vacuum. HEPES buffer saline (HBS 0.01 M, pH=7.4) warmed to 60° C. was then added in order to rehydrate the dried film. The solutions were vortexed, stirred for 48 hours at room temperature and sonicated for two and half hours. The formulation was then centrifuged at 1000 rpm for 5 minutes to remove any free compound 3.
CD-1 female nude mice (6-7 weeks, 7 mice per treatment group) were injected […] with human lung NCI-H460 cells (3×10^6 cells in 0.1 ml PBS) subcutaneously. Treatment of the mice with vehicle or compound 3 was initiated 5 days post-inoculation (size of tumours=20-40 mm^3) for 7-day cycles of five days followed by a 2 day break for the duration of the experiment (35 days). Mice were treated with 80 mg/kg/d for the first week followed by 40 mg/kg/d until the end of the experiment. The size of the tumours was measured over the course of the experiment using calipers, and the weight of the tumours was measured after the animals were sacrificed.
The ability of compounds 3, 5, and 7 to inhibit large-cell lung carcinoma cell growth in vivo was tested in the mouse xenograft model as described in Example 27. The compounds were tested as Lutrol formulations (administered i.p.), lipid-based formulations micelles (administered i.v.), or water-based formulations (administered i.p.). The vehicle controls included Lutrol control (administered i.p.), lipid micelle control (administered i.v.), and water control (administered i.p.). Lutrol formulations contained 15% Lutrol and 10% DMSO. The composition of the lipid-based formulations and preparation of same was as described in Example 27 above.

[2] = system: human colon carcinoma HT-29 cells; test: XTT cell proliferation assay, HT-29; format: cell-based; settings: Homo sapiens, HT-29, XTT, read-out: IC50
Protocol: The ability of compounds of Formula I to inhibit the proliferation of human colon carcinoma HT-29 cells was tested as follows. HT-29 colon carcinoma cells used in this example and subsequent examples were maintained as a monolayer in a growth medium; McCoy's 5A modified medium (Sigma, St. Louis, Mo.), supplemented with 2 mM L-glutamine (Gibco, Grand Island, N.Y.), 10% fetal bovine serum (FBS) (Multicell, WISENT Inc. St-Bruno, QC), antibiotic-antimycotic (Multicell), at 37° C. in a 5% CO2-humidified incubator. Cells were transferred onto 150 mm tissue culture plates and grown until sub-confluency (70-80%) prior to their use. The in vitro antiproliferative activity of compounds was evaluated by incubating the cells with varying concentrations of the compounds as shown in Table 1 for 6-7 days. The efficacy of these compounds in this cell proliferation assay was measured based in the ability of live cells to reduce the tetrazolium salt XTT to orange colored compounds of formazan (XTT cell proliferation kit II, Roche Applied Science, Montreal, QC).
The ability of compounds of Formula I to inhibit the proliferation of human colon carcinoma HT-29 cells was tested as described above in Example 13.
Cell growth inhibition IC50 (μM) by compounds of Formula I was tested on various cancer cell types by XTT cell proliferation assay. The growth inhibitory effects of the compounds of Formula I as shown below for the melanoma cell line SK-MEL-2 were reproducible by Lorus Therapeutics Inc.

[3] = system: HT-29 cells; test: Effect of exogenous metals on growth inhibition of HT-29 cells (XTT); format: cell-based, human; settings: HT-29, 5 days
Protocol: To determine whether metal chelation is involved in the growth inhibitory activity of compounds of Formula I, exogenous metals (ZnCl2, FeCl2.4H2O, FeCl3.4H2O, MgCl2, at 100 μM) were incubated with HT-29 cells, simultaneously with control vehicle DMSO, compound 3 (5 μM), or compound 13 (25 μM), for 5 days. […] Growth inhibition by compound 13 is predicted to occur through a different mechanism than compound 3.
To determine whether chelation of copper is involved in the growth inhibitory activity of compounds of Formula I, HT-29 cells were incubated with up to 5 μM of compound 3, in the presence or absence of 25 μM CuSO4.5H20 for 5 days.
To determine whether metal chelation is involved in the growth inhibitory activity of compound 3, various concentrations of exogenous metals were incubated with HT-29 cells, simultaneously with various concentrations of compound 3, for 5 days. The exogenous metals tested were: ZnCl2 (zinc), CuSO4.5H20 (copper), FeCl2 (iron II), FeCl3.4H20 (iron III), MgCl2 (magnesium), and CaCl2.2H20 (calcium). HT-29 cells (4×10^3/well) in 100 μL volume of the growth medium were seeded in 96-well cell culture plates and incubated overnight at 37° C. The medium was removed and replaced with a total volume of 100 μl growth medium containing concentrations of metal ions as shown in FIG. 5 with compound 3 or 0.1% DMSO vehicle control. After incubation of the cells at 37° C. for 5 days, cell viability was quantitated using the XTT (sodium 3′-[1-(phenylamino-carbonyl)-3,4-tetrazolium}-bis (4-methoxy-6-nitro) benzene sulfonic acid hydrate) calorimetric assay (Roche Applied Science, Penzberg, Germany). XTT labeling reagent (1 mg/mL) was mixed with electron-coupling reagent, following the manufacturer's instructions, and 50 μl of the mixture was added directly to the cells cultured in 100 μl growth medium. The plates were further incubated at 37° C. for 4 hours and the absorbance of each well was measured by a multi-well spectrophotometer (Bio-Tek Instruments Inc.) at 460 nm. The data were adjusted relative to the blank, and were expressed as % of cell growth compared to the DMSO control.
To determine the ability of compounds 5 and 7 to chelate metals in cells, exogenous metals were added to HT-29 cells, simultaneously with various concentrations of compounds 5 and 7. Briefly, HT-29 cells were treated with various concentrations compounds 5 and 7, plus or minus copper (25 μM CuSO4.5H20) or zinc (100 μM of ZnCl2), for 5 days. Cell viability was determined by XTT assay. The effects of copper and zinc on growth inhibition of HT-29 cells are shown in FIG. 6A for compound 5 and in FIG. 6B for compound 7.
Effect of metal ion supplements on compound 3-mediated cell growth inhibition of HT-29 cells was examined by XTT cell proliferation assay.

[4] = format: in vivo; settings: i.p. twice per day for 1 week
Protocol: To test the sub-acute toxicity of the compounds of Formula I, female mice were injected with the compounds and toxicity was evaluated based on mortality, changes in behaviour, appearance and weight. Briefly, ICR normal female mice (5-6 weeks old; n=33) weighing about 0.020 kg in body weight, were injected with various compounds at 100 mg/kg and 50 mg/kg or with the vehicle alone (Lutrol (M68, micronized)). Groups of 3 ICR female mice were injected with one intra-peritoneal (i.p.) injection of 250 μl of each compound at 4.0 mg/ml twice per day (100 mg/kg) for 1 week (Group I); or with one intra-peritoneal (i.p.) injection of 250 μl of each compound at 2.0 mg/ml twice per day (50 mg/kg) for 1 week (Group II), or with one intra-peritoneal (i.p.) injection of 250 μl of lutrol vehicle control twice per day for 1 week (Control Group).
The compounds to be tested were prepared to provide enough for one week at concentrations of 4.0 mg/ml and 2.0 mg/ml. Briefly, 50 mg of each compound was dissolved in 1.25 ml of 100% DMSO and diluted with 6.25 ml of Lutrol (30% in water) and 5 ml water, to prepare a solution of 4 mg/ml compound in 15% Lutrol in water. Next, 4 ml of each prepared solution was further diluted with 4 ml of 15% Lutrol in water to provide the 2.0 mg/ml solution of each compound. For the vehicle control solution, 8 ml of 15% Lutrol in water was prepared. Compounds at concentrations of 4.0 mg/ml and 2.0 mg/ml and the vehicle control were administered as described above.

[5] = system: supercoiled plasmid DNA; test: In vitro DNA cleavage assay; format: biochemical; settings: 25 μM compound, 10 μM CuSO4, 100 μM ascorbic acid, 37° C., 30 minutes
Protocol: Compound 3 was tested for its ability to cleave plasmid DNA in vitro in the presence of copper and the reducing agent ascorbic acid. Experiments were performed in a total of 20 μl, containing 10 mM NaH2PO4/Na2HPO4 buffer (pH 6.7), 1 μg of supercoiled plasmid DNA, 100 μM ascorbic acid, 25 μM drug compound (or vehicle), and 10 μM of CuSO4.5H20. The reaction mixture was incubated at 37° C. for 30 minutes, and 1 μl of 0.1 M EDTA was added to terminate the reaction. DNA loading buffer was added, and reactions were run at 80V for 80 minutes on a 1% agarose gel containing ethidium bromide.
To determine whether ions other than copper could suffice, DNA cleavage reactions were also carried out in the presence of zinc or iron. Reactions were performed as above, in the presence of 25 μM of CuSO4.5H20, ZnCl2, or FeCl2.4H20. […] Note that copper alone in the presence of ascorbic acid can shift the ratio of supercoiled DNA to open circular DNA.
To determine the ratios of compound to copper at which compound 3 was effective, reactions were performed as in FIG. 22A. The ratios of compound 3 to copper of 3:1, 2.5:1, 2:1, 1.5:1, and 1:1, as shown in FIG. 23 were achieved by maintaining the concentration of Cu constant at 10 μM, and varying the concentration of compound 3. The ratios of compound 3 to Cu of 1:1.5, 1:2, 1:2.5, and 1:3, were achieved by maintaining the concentration of compound 3 constant at 10 μM, and varying the concentration of copper.
Other compounds of Formula I, compounds 5, 7, 9 and 13 were also tested for their ability to cleave DNA at a ratio of 2.5:1 to copper (FIG. 23). Ratios of compound 3:copper as indicated, plus concentrations of copper in the absence of compound 3 were used in the DNA cleavage assay as described above.

[6] = system: normal cell lines PrEC, HMEC, WI38 and cancer cell lines DU145, MDA-MB-435, HT-29; test: Cancer cell selectivity, IC90 in normal versus cancer cell lines (XTT); format: cell-based, human; settings: average IC90 of all normal / average IC90 of all cancer cell lines, 6 to 7 days
Excerpt: An exemplary method of assessing the differential sensitivity between normal and cancer cells for a compound has been described by Vassilev et al. (Anti-Cancer Drug Design (2001) 16:7). This method involves the comparison of IC90 values, i.e. the molar concentration of a test compound required to cause 90% growth inhibition of exponentially growing cells. Thus, the IC90 values for candidate compounds can be evaluated in various cancer cell lines (such as those outlined above) and normal cells (such as HUVEC and/or WI38 cells) and compared. IC90 values can be measured using a variety of standard techniques as known in the art. Cancer cell selectivity is calculated as a ratio between the average IC90 for all normal cell lines and the average IC90 for all cancer cell lines. Compounds with an IC90 ratio (normal/cancer) of >4 are considered to be selective for cancer cells (L. T. Vassilev et al., Anti-cancer Drug Design, 2001, 16: 7-17).
The normal cells lines used were PrEC (prostate), HMEC (breast), and WI38 (lung fibroblast) cell lines and the cancer cells lines were DU145 (prostate), MDA-MB-435 (breast), HT-29 (colon). IC90 values were also determined for the controls doxorubicin and etoposide. The cells were cultured as generally described in Example 13. Various concentrations of the compounds were incubated with the cells for 6 to 7 days, and the number of proliferating cells was measured using the XTT assay. Cancer cell selectivity was calculated as a ratio between the average IC90 for all normal and the average IC90 for all cancer cell lines.

IC50 ([2]; 6-7 days, Table 3): 350 nM | IC50 ([2]; as Example 13, Table 7): 0.35 µg/mL
SMILES: Cc1[nH]c2ccc(Cl)cc2c1-c1nc2c3cccnc3c3ncccc3c2[nH]1 [Compound 5]
tumour size and weight [1]: able to decrease the size (FIG. 16A) and weight (FIG. 16B) of tumours | effect of exogenous copper on growth inhibition ([3]; 25 μM CuSO4, low concentrations of compound (less than 2 μM)): copper impaired the activity only at low concentrations | effect of exogenous zinc on growth inhibition ([3]; ZnCl2 (100 μM)): zinc impaired the growth inhibitory activities

SMILES: c1ccc2c(-c3nc4c5cccnc5c5ncccc5c4[nH]3)c(-c3ccncc3)[nH]c2c1 [Compound 11]
Sub-acute toxicity ([4]; 50 mg/Kg): − | Sub-acute toxicity ([4]; 100 mg/Kg): + | IC50 ([2]; 6-7 days, Table 3): > 2500 nM | IC50 ([2]; as Example 13, Table 7): > 2.5 µg/mL

SMILES: c1ccc2c(-c3nc4c5cccnc5c5ncccc5c4[nH]3)c(CN3CCCCC3)[nH]c2c1 [Compound 12]
cleavage of plasmid DNA [5]: capable of cleaving DNA | Sub-acute toxicity ([4]; 50 mg/Kg): − | Sub-acute toxicity ([4]; 100 mg/Kg): + | IC50 ([2]; 6-7 days, Table 3): 280 nM | IC50 ([2]; as Example 13, Table 7): 0.28 µg/mL

SMILES: Cc1[nH]c2ccccc2c1-c1nc2c3ccccc3c3ccccc3c2[nH]1 [Compound 13, reference compound]
cleavage of plasmid DNA [5]: unable to cleave DNA | effect of exogenous metals on activity of the negative control ([3]; compound 13 25 μM): None of the metals had any effect; also recorded: Copper had no effect on growth inhibition

SMILES: COc1cccc2c1C(=O)c1c(O)c3c(c(O)c1C2=O)C[C@@](O)(C(=O)CO)C[C@@H]3O[C@H]1C[C@H](N)[C@H](O)[C@H](C)O1 [Doxorubicin, doxorubicin, reference compound]
Normal/cancer IC90 ratio [6]: 5.6

SMILES: COc1cc([C@@H]2c3cc4c(cc3[C@@H](O[C@@H]3O[C@@H]5CO[C@@H](C)O[C@H]5[C@H](O)[C@H]3O)[C@H]3COC(=O)[C@H]23)OCO4)cc(OC)c1O [Etoposide, etoposide, reference compound]
Normal/cancer IC90 ratio [6]: >5.0
